Data taken from ChEMBL document CHEMBL4840351 (J Med Chem, 2021).
Blank lines part the entries; values can stand above or below the compound they belong to.

Experiments:
[1] = biological target: T1, Tyrosine-protein kinase ITK/TSK (Homo sapiens, UniProt Q08881); experiment: Inhibition of full-length N-terminal GST-tagged ITK (2 to 620 residues) (unknown origin) expressed in Sf21 insect cells using NH2-ETVYSEVRK-biotin as substrate preincubated for 1 hr followed by ATP addition and measured after 2 hrs by ELISA
T1 sequence (Q08881 whole entry): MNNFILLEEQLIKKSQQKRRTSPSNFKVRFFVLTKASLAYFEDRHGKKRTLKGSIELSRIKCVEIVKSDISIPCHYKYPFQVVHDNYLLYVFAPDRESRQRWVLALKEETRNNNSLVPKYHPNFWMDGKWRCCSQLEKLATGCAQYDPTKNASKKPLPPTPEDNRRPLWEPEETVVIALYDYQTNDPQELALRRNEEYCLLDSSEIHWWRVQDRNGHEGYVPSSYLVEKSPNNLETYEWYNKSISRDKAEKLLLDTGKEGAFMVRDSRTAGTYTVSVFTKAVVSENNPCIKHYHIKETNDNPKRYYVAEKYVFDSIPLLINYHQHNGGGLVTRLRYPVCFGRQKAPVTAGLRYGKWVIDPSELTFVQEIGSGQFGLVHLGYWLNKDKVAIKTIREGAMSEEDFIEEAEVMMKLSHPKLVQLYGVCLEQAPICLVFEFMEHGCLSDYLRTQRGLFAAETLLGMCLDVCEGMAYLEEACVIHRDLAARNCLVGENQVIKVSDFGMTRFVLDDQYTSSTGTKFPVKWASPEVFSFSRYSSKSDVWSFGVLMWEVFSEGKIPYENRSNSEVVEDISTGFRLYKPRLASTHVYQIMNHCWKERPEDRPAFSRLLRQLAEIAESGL

[2] = biological target: Epidermal growth factor receptor (Homo sapiens, UniProt P00533); experiment: Inhibition of N-terminal DYKDDDD-tagged EGFR (669 to 1210 residues) (unknown origin) expressed in Sf21 insect cells using NH2-ETVYSEVRK-biotin as substrate preincubated for 1 hr followed by ATP addition and measured after 2 hrs by ELISA
Chain of Epidermal growth factor receptor (P00533 whole entry, the tested form may be a part): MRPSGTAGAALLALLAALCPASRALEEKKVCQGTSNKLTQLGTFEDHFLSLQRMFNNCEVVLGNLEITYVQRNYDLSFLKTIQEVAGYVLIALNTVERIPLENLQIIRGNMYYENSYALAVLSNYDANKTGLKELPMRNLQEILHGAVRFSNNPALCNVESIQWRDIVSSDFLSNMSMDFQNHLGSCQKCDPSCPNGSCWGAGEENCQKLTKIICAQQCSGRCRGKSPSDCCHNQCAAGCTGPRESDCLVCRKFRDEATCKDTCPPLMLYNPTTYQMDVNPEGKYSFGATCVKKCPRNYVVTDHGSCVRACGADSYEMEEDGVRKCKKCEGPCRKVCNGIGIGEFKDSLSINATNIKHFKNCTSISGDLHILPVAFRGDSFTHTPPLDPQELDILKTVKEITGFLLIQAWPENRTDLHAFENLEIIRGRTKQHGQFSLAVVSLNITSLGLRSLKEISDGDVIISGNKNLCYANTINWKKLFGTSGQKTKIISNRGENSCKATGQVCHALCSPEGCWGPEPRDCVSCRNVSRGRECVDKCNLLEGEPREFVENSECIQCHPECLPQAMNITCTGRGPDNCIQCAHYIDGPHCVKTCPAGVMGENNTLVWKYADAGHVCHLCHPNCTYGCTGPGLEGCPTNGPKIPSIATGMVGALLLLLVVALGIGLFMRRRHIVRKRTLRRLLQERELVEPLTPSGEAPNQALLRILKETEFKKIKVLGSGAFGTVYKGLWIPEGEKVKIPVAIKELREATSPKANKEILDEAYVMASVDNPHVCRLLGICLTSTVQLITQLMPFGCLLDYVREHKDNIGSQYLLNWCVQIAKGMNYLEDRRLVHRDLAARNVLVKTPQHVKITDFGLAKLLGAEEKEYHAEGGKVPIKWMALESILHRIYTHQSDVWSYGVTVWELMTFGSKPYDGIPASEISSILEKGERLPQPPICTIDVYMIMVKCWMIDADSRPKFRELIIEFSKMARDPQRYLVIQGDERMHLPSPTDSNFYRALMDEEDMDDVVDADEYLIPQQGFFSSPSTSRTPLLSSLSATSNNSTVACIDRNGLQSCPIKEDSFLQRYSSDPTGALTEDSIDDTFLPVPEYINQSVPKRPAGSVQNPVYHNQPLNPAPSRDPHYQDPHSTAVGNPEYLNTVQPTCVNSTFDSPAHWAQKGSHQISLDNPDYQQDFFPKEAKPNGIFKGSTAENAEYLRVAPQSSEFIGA

[3] = biological target: Tyrosine-protein kinase BTK (Homo sapiens, UniProt Q06187); experiment: Inhibition of full-length N-terminal GST tagged BTK (2 to 659 residues) (unknown origin) expressed in Sf21 insect cells using NH2-ETVYSEVRK-biotin as substrate preincubated for 1 hr followed by ATP addition and measured after 2 hrs by ELISA
Chain of Tyrosine-protein kinase BTK (Q06187 whole entry, the tested form may be a part): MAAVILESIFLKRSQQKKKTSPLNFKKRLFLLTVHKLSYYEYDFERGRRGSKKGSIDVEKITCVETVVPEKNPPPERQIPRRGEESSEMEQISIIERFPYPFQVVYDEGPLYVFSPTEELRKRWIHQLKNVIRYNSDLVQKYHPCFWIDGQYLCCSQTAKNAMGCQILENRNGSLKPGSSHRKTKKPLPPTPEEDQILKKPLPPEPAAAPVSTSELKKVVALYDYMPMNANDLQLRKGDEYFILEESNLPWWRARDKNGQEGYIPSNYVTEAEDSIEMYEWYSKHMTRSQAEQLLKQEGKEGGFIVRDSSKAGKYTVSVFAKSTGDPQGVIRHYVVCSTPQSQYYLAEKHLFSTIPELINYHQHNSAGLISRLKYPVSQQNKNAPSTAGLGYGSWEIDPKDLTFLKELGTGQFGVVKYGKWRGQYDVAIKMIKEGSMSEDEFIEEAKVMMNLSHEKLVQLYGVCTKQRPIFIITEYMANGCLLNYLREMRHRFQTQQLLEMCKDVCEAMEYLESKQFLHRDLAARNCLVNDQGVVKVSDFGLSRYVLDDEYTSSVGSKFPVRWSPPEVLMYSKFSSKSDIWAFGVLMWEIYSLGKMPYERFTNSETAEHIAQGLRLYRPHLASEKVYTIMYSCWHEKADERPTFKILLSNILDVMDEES

Ramos = experiment: Antiproliferative activity against human Ramos cells assessed as reduction in cell viability incubated for 72 hrs by celltiter-glo assay
TMD8 [4] = experiment: Antitumor activity against human TMD8 cells xenografted in CB-17 SCID nude mouse assessed as tumor growth inhibition at 7.5 mg/kg, po bid administered for 21 days; assay type: functional; settings: 504 h, time 21 day, read-out: TGI
SU-DHL-2 = experiment: Antiproliferative activity against human SUDHL2 cells assessed as reduction in cell viability incubated for 72 hrs by celltiter-glo assay; settings: SU-DHL-2, 72 h
Raji = experiment: Antiproliferative activity against human Raji cells assessed as reduction in cell viability incubated for 72 hrs by celltiter-glo assay
MOLM-13 = experiment: Antiproliferative activity against human MOLM-13 cells assessed as reduction in cell viability incubated for 72 hrs by celltiter-glo assay; settings: MOLM-13, 72 h
[5] = Receptor occupancy at BTK in spleen of ICR mouse at 15 mg/kg, po after 24 hrs by ELISA; assay type: functional
[6] = Cmax in ICR mouse at 15 mg/kg, po after 24 hrs; assay type: ADME, organism-based; design: route oral, time 24 hrs, dose 15 mg/kg; settings: in vivo
Pfeiffer = experiment: Antiproliferative activity against human Pfeiffer cells assessed as reduction in cell viability incubated for 72 hrs by celltiter-glo assay
TMD8 [7] = experiment: Antiproliferative activity against human TMD8 cells assessed as reduction in cell viability incubated for 72 hrs by celltiter-glo assay; settings: TMD8, 72 h
NAMALVA = experiment: Antiproliferative activity against human NAMALWA cells assessed as reduction in cell viability incubated for 72 hrs by celltiter-glo assay
Rec1 = experiment: Antiproliferative activity against human REC-1 cells assessed as reduction in cell viability incubated for 72 hrs by celltiter-glo assay; settings: Rec1, 72 h
TMD8 [8] = experiment: Induction of cell cycle arrest in human TMD8 cells assessed as accumulation of cells at G2 phase at 3 nM incubated for 48 hrs by PI staining based flow cytometric analysis (reference value: 4.92 %); assay type: functional
TMD8 [9] = experiment: Induction of cell cycle arrest in human TMD8 cells assessed as accumulation of cells at G1 phase at 300 nM incubated for 48 hrs by PI staining based flow cytometric analysis (reference value: 57.66 %); assay type: functional
TMD8 [10] = experiment: Induction of cell cycle arrest in human TMD8 cells assessed as accumulation of cells at S phase at 300 nM incubated for 48 hrs by PI staining based flow cytometric analysis (reference value: 37.42 %); assay type: functional
TMD8 [11] = experiment: Induction of cell cycle arrest in human TMD8 cells assessed as accumulation of cells at S phase at 3 nM incubated for 48 hrs by PI staining based flow cytometric analysis (reference value: 37.42 %); assay type: functional
TMD8 [12] = experiment: Induction of apoptosis in human TMD8 cells at 30 nM incubated for 72 hrs by Annexin V-FITC/PI staining based flow cytometric analysis (reference value: 13.4 %); assay type: functional
TMD8 [13] = experiment: Induction of apoptosis in human TMD8 cells at 300 nM incubated for 72 hrs by Annexin V-FITC/PI staining based flow cytometric analysis (reference value: 13.4 %); assay type: functional
TMD8 [14] = experiment: Induction of cell cycle arrest in human TMD8 cells assessed as accumulation of cells at S phase at 30 nM incubated for 48 hrs by PI staining based flow cytometric analysis (reference value: 37.42 %); assay type: functional
TMD8 [15] = experiment: Induction of cell cycle arrest in human TMD8 cells assessed as accumulation of cells at G1 phase at 3 nM incubated for 48 hrs by PI staining based flow cytometric analysis (reference value: 57.66 %); assay type: functional
TMD8 [16] = experiment: Induction of cell cycle arrest in human TMD8 cells assessed as accumulation of cells at G2 phase at 30 nM incubated for 48 hrs by PI staining based flow cytometric analysis (reference value: 4.92 %); assay type: functional
TMD8 [17] = experiment: Induction of cell cycle arrest in human TMD8 cells assessed as accumulation of cells at G2 phase at 300 nM incubated for 48 hrs by PI staining based flow cytometric analysis (reference value: 4.92 %); assay type: functional
TMD8 [18] = experiment: Induction of cell cycle arrest in human TMD8 cells assessed as accumulation of cells at G1 phase at 30 nM incubated for 48 hrs by PI staining based flow cytometric analysis (reference value: 57.66 %); assay type: functional
TMD8 [19] = experiment: Induction of apoptosis in human TMD8 cells at 3000 nM incubated for 72 hrs by Annexin V-FITC/PI staining based flow cytometric analysis (reference value: 13.4 %); assay type: functional

- IC50 [1]: 2210 nM
- IC50 [2]: 79.4 nM
SMILES: C=CC(=O)N1CCCC[C@H]1c1nc(-c2ccc(C(=O)Nc3cc(-c4ccccc4)ccn3)cc2)c(C(N)=O)n1N

- IC50 [3]: 17.1 nM
SMILES: C=CC(=O)N1CCCC[C@H]1c1nc(-c2ccc(C(=O)Nc3cc(C#N)ccn3)cc2)c(C(N)=O)n1N

- IC50 [3]: > 10000 nM
SMILES: CCc1ccnc(NC(=O)c2ccc(-c3nc([C@@H]4CCCCN4C(=O)/C(C#N)=C/C(C)C)n(N)c3C(N)=O)cc2)c1

- IC50 (Ramos): 770 nM
- IC50 (MOLM-13): 730 nM
- IC50 [1]: > 30000 nM
SMILES: CC#CC(=O)N1CCCC[C@H]1c1nc(-c2ccc(C(=O)Nc3cc(C(F)(F)F)ccn3)cc2)c(C(N)=O)n1N
- Activity (TMD8 [8]): 4.09%
- Activity (TMD8 [9]): 94.86%
- Activity (TMD8 [10]): 1.96%
- Activity (TMD8 [11]): 41.28%
- Activity (TMD8 [12]): 14.1%
- Activity (TMD8 [13]): 36.8%
- Activity (TMD8 [14]): 27.8%
- Activity (TMD8 [15]): 54.63%
- Activity (TMD8 [16]): 4.76%
- Activity (TMD8 [17]): 3.18%
- Activity (TMD8 [18]): 67.44%
- IC50 (TMD8 [7]): 54 nM
- Activity (TMD8 [19]): 81.3%

- IC50 [3]: > 10000 nM
SMILES: C/C=C/C(=O)N1CCCC[C@H]1c1nc(-c2ccc(C(=O)Nc3cc(CC)ccn3)cc2)c(C(N)=O)n1N

- IC50 [3]: 5160 nM
SMILES: C=CC(=O)N1CCCC[C@H]1c1nc(-c2ccc(C(=O)Nc3cc(C(F)(F)F)ccn3)cc2)c(C(=O)OCC)n1N

- IC50 [1]: 29500 nM
- IC50 [2]: 176 nM
SMILES: C=CC(=O)N1CCCC[C@H]1c1nc(-c2ccc(C(=O)Nc3cc(Cl)ccn3)cc2)c(C(N)=O)n1N

- IC50 [1]: 1920 nM
- IC50 [2]: 12.6 nM
SMILES: C=CC(=O)N1CCCC[C@H]1c1nc(-c2ccc(C(=O)Nc3cc(-c4ccc(Cl)cc4)ccn3)cc2)c(C(N)=O)n1N

- IC50 [3]: > 10000 nM
SMILES: C=C(C)C(=O)N1CCCC[C@H]1c1nc(-c2ccc(C(=O)Nc3cc(CC)ccn3)cc2)c(C(N)=O)n1N

- IC50 [3]: 226 nM
SMILES: C=CC(=O)N1CCCCC[C@H]1c1nc(-c2ccc(C(=O)Nc3cc(CC)ccn3)cc2)c(C(N)=O)n1N

- IC50 [3]: > 10000 nM
SMILES: CCc1ccnc(NC(=O)c2ccc(-c3nc([C@@H]4CCCCN4C(=O)C=C(C)C)n(N)c3C(N)=O)cc2)c1

- IC50 [3]: 571 nM
SMILES: C=CC(=O)N1CCCC[C@H]1c1nc(-c2ccc(C(=O)Nc3ccccc3)cc2)c(C(N)=O)n1N

- IC50 [3]: > 10000 nM
SMILES: C=CC(=O)N1CCCC[C@H]1c1nc(-c2ccc(C(=O)Nc3cccnc3)cc2)c(C(N)=O)n1N

- IC50 [1]: 6060 nM
- IC50 [2]: 113 nM
SMILES: C=CC(=O)N1CCCC[C@H]1c1nc(-c2ccc(C(=O)Nc3cc(-c4ccc(F)cc4)ccn3)cc2)c(C(N)=O)n1N

The remaining lines, values behind:

SMILES: CC#CC(=O)N1CCCC[C@H]1c1nc(-c2ccc(C(=O)Nc3cc(-c4ccccc4)ccn3)cc2)c(C(N)=O)n1N
- IC50 [1]: > 30000 nM
- IC50 [2]: 16800 nM

SMILES: C=CC(=O)N1CCCC[C@H]1c1nc(-c2ccc(C(=O)Nc3cc(CC)ccn3)cc2)c(C(N)=O)n1N
- IC50 [3]: 11.3 nM

SMILES: CCC(=O)N1CCCC[C@H]1c1nc(-c2ccc(C(=O)Nc3cc(C(F)(F)F)ccn3)cc2)c(C(N)=O)n1N
- IC50 [3]: 4750 nM

SMILES: CC#CC(=O)N1CCC[C@H]1c1nc(-c2ccc(C(=O)Nc3ccccn3)cc2)c2c(N)nccn12 [ACALABRUTINIB]
- IC50 (Ramos): 31300 nM
- inhibition in vivo at 7.5 mg/kg (TMD8 [4]): 91%
- IC50 (SU-DHL-2): > 10000 nM
- IC50 (Raji): > 10000 nM
- IC50 (MOLM-13): 358000 nM
- Occ [5]: 44%
- Cmax [6]: 780 nM
- IC50 (Pfeiffer): > 10000 nM
- IC50 (TMD8 [7]): 24 nM
- IC50 (NAMALVA): > 10000 nM
- IC50 (Rec1): 13 nM

SMILES: C#CC(=O)N1CCCC[C@H]1c1nc(-c2ccc(C(=O)Nc3cc(CC)ccn3)cc2)c(C(N)=O)n1N
- IC50 [3]: 10 nM

SMILES: C=CC(=O)N1CCC[C@@H](n2nc(-c3ccc(Oc4ccccc4)cc3)c3c(N)ncnc32)C1 [IBRUTINIB]
- inhibition in vivo at 7.5 mg/kg (TMD8 [4]): 99%

SMILES: C=CC(=O)N1CCC[C@H]1c1nc(-c2ccc(C(=O)Nc3cc(CC)ccn3)cc2)c(C(N)=O)n1N
- IC50 [3]: 39.3 nM

SMILES: C=CC(=O)N1CCCC[C@H]1c1nc(-c2ccc(C(=O)Nc3cc(Br)ccn3)cc2)c(C(N)=O)n1N
- IC50 [1]: 15300 nM
- IC50 [2]: 578 nM

SMILES: CC/C=C/C(=O)N1CCCC[C@H]1c1nc(-c2ccc(C(=O)Nc3cc(CC)ccn3)cc2)c(C(N)=O)n1N
- IC50 [3]: > 10000 nM

SMILES: C=CC(=O)N1CCC[C@@H](c2nc(-c3ccc(C(=O)Nc4cc(CC)ccn4)cc3)c(C(N)=O)n2N)C1
- IC50 [3]: 18.9 nM

SMILES: C=CC(=O)N1CCCC[C@H]1c1nc(-c2ccc(C(=O)Nc3cc(OC)ccn3)cc2)c(C(N)=O)n1N
- IC50 [1]: > 30000 nM
- IC50 [2]: 450 nM

SMILES: CCc1ccnc(NC(=O)c2ccc(-c3nc([C@@H]4CCCCN4C(=O)/C(C#N)=C/C4CC4)n(N)c3C(N)=O)cc2)c1
- IC50 [3]: > 10000 nM

SMILES: CC#CC(=O)N1CCCC[C@H]1c1nc(-c2ccc(C(=O)Nc3cc(Cl)ccn3)cc2)c(C(N)=O)n1N
- IC50 [1]: > 30000 nM
- IC50 [2]: > 30000 nM
